Data reported in patent US20100298141A1, “SUBSTITUTED PYRIDINE N-OXIDE HERBICIDES” (E. I. DU PONT DE NEMOURS AND COMPANY, priority 2007, published 2010).

What was measured:
[1] = system: lambsquarters; test: Test C pre-/postemergence test; format: in vivo, Chenopodium album
In short: (§1)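 Test chemicals were formulated with surfactant in a non-phytotoxic solvent and sprayed both on freshly planted seeds (preemergence) and on 1- to 4-leaf plants of 2–18 cm (postemergence). Flooded-paddy pots received compound directly into 3 cm of standing water, maintained for the test.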

[2] = system: velvetleaf; test: Test A pre-/postemergence greenhouse test; format: in vivo, Abutilon theophrasti; conditions: for Velvetleaf plant response rating: 0 to 100 scale
In short: (§2)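 Each test compound, dissolved in a non-phytotoxic solvent mixture with surfactant, was sprayed directly onto seeded soil (loam/sand blend) and, at the same moment, onto seedlings carrying one to two leaves. Around ten greenhouse days later, plants were rated visually for injury relative to untreated controls.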

[3] = system: velvetleaf; test: Test C pre-/postemergence test; format: in vivo, Abutilon theophrasti
In short: as §1

[4] = system: giant foxtail; test: Test A pre-/postemergence greenhouse test; format: in vivo, Setaria faberi; conditions: for Foxtail, Giant plant response rating: 0 to 100 scale
In short: as §2

[5] = system: redroot pigweed; test: Test A pre-/postemergence greenhouse test; format: in vivo, Amaranthus retroflexus; conditions: for Pigweed plant response rating: 0 to 100 scale
In short: as §2

[6] = system: eastern black nightshade; test: Test C pre-/postemergence test; format: in vivo, Solanum ptycanthum
From the text: Seeds of plant species selected from blackgrass (Alopecurus myosuroides), downy brome (Bromus tectorum), green foxtail (Setaria viridis), Italian ryegrass (Lolium multiflorum), wheat (Triticum aestivum), wild oat (Avena fatua), catchweed bedstraw (Galium aparine), Russian thistle (Salsola kali), […] (Cynodon dactylon), Surinam grass (Brachiaria decumbens), cocklebur (Xanthium strumarium), corn (Zea mays), crabgrass (Digitaria sanguinalis), woolly cupgrass (Eriochloa villosa), giant foxtail (Setaria faberii), Goosegrass (Eleusin indica), johnsongrass (Sorghum halepense), kochia (Kochia scoparia), lambsquarters (Chenopodium album), morningglory (Ipomoea coccinea), eastern black nightshade (Solanum ptycanthum), yellow nutsedge (Cyperus esculentus), pigweed (Amaranthus retroflexus), common ragweed (Ambrosia elation), soybean (Glycine max), common (oilseed) sunflower (Helianthus annuus), and velvetleaf (Abutilon theophrasti) were planted and treated preemergence with test chemicals formulated in a non-phytotoxic solvent mixture which included a surfactant. At the same time, plants selected from these crop and weed species and also winter barley (Hordeum vulgare), canarygrass (Phalaris minor), and chickweed (Stellaria media) were treated with postemergence applications of some of the test chemicals formulated in the same manner. Plants ranged in height from 2 to 18 cm (1- to 4-leaf stage) for postemergence treatments. […] At time of treatment, test pots were flooded to 3 cm above the soil surface, treated by application of test compounds directly to the paddy water, and then maintained at that water depth for the duration of the test. […] A dash (-) response means no test result.

[7] = system: barnyardgrass; test: Test C flooded paddy test; format: in vivo, Echinochloa crus-galli; conditions: Flood
In short: (§3)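 Greenhouse pots flooded to 3 cm above soil at time of treatment received compound via the water, which stayed at that level.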

[8] = system: corn; test: Test A pre-/postemergence greenhouse test; format: in vivo, Zea mays; conditions: for Corn plant response rating: 0 to 100 scale
In short: as §2

[9] = system: rice; test: Test C flooded paddy test; format: in vivo, Oryza sativa; conditions: Flood
In short: as §3

[10] = system: johnsongrass; test: Test C pre-/postemergence test; format: in vivo, Sorghum halepense
In short: as §1

[11] = system: Goosegrass; test: Test C pre-/postemergence test; format: in vivo, Eleusin indica
In short: as §1

[12] = system: duck salad; test: Test C flooded paddy test; format: in vivo, Heteranthera limosa; conditions: Flood
In short: as §3

[13] = system: Surinam grass; test: Test C pre-/postemergence test; format: in vivo, Brachiaria decumbens
In short: as §1

[14] = system: wheat; test: Test A pre-/postemergence greenhouse test; format: in vivo, Triticum aestivum; conditions: for Wheat plant response rating: 0 to 100 scale
In short: as §2

[15] = system: giant foxtail; test: Test C pre-/postemergence test; format: in vivo, Setaria faberii
In short: as §1

[16] = system: common ragweed; test: Test C pre-/postemergence test; format: in vivo, Ambrosia elation
In short: as §1

[17] = system: bermudagrass; test: Test C pre-/postemergence test; format: in vivo, Cynodon dactylon
In short: as §1

[18] = 62 g ai/ha, Preemergence, scale 0 to 100
[19] = 125 g ai/ha, preemergence, scale 0 (no effect) to 100 (complete control)
[20] = Preemergence, 31 g ai/ha, scale 0 to 100 (0 no effect, 100 complete control)
[21] = preemergence, 250 g ai/ha, scale 0 (no effect) to 100 (complete control)
[22] = Postemergence, 125 g ai/ha, 0 is no effect, 100 is complete control
[23] = Postemergence, 500 g ai/ha, 0 is no effect, 100 is complete control
[24] = Preemergence, 125 g ai/ha, 0 no effect, 100 complete control
[25] = Preemergence, 500 g ai/ha, 0 to 100 scale where 0 is no effect and 100 is complete control
[26] = 31 g ai/ha, scale 0 to 100 (0 no effect, 100 complete control)
[27] = 62 g ai/ha, scale 0 to 100, 0 no effect, 100 complete control, 13 to 15 days
[28] = 125 g ai/ha, scale 0 to 100, 0 no effect, 100 complete control, 13 to 15 days
[29] = 250 g ai/ha, scale 0 to 100, 0 no effect, 100 complete control, 13 to 15 days

Cn1nc(C(F)(F)F)c(C[S+]([O-])c2cc(Cl)cc[n+]2[O-])c1Cl (racemic) [Compound 39]
Lambsquarters plant response rating [1, 18]: 80
Lambsquarters plant response rating [1, 19]: 100
Plant response rating, Lambsquarters [1, 20]: 75
Lambsquarters plant response rating [1, 21]: 100
Velvetleaf plant response rating [2, 22]: 40
Velvetleaf plant response rating [2, 23]: 60
Velvetleaf plant response rating [2, 24]: 70
Plant response rating, Velvetleaf [2, 25]: 100
Velvetleaf plant response rating [3, 18]: 45
Velvetleaf plant response rating [3, 19]: 60
Plant response rating, Velvetleaf [3, 20]: 30
Velvetleaf plant response rating [3, 21]: 100
Foxtail, Giant plant response rating [4, 22]: 80
Foxtail, Giant plant response rating [4, 23]: 90
Foxtail, Giant plant response rating [4, 24]: 100
Plant response rating, Foxtail, Giant [4, 25]: 100
Pigweed plant response rating [5, 22]: 60
Pigweed plant response rating [5, 23]: 100
Pigweed plant response rating [5, 24]: 100
Plant response rating, Pigweed [5, 25]: 100
Nightshade plant response rating [6, 18]: 90
Nightshade plant response rating [6, 19]: 95
Plant response rating, Nightshade [6, 20]: 75
Nightshade plant response rating [6, 21]: 98
Plant response rating, Barnyardgrass [7, 26]: 0
Plant response rating, Barnyardgrass [7, 27]: 0
Plant response rating, Barnyardgrass [7, 28]: 30
Plant response rating, Barnyardgrass [7, 29]: 65
Corn plant response rating [8, 22]: 30
Corn plant response rating [8, 23]: 50
Corn plant response rating [8, 24]: 30
Plant response rating, Corn [8, 25]: 50
Plant response rating, Rice [9, 26]: 0
Plant response rating, Rice [9, 27]: 10
Plant response rating, Rice [9, 28]: 40
Plant response rating, Rice [9, 29]: 65
Johnsongrass plant response rating [10, 18]: 80
Johnsongrass plant response rating [10, 19]: 85
Plant response rating, Johnsongrass [10, 20]: 30
Johnsongrass plant response rating [10, 21]: 85
Goosegrass plant response rating [11, 18]: 100
Goosegrass plant response rating [11, 19]: 100
Plant response rating, Goosegrass [11, 20]: 98
Goosegrass plant response rating [11, 21]: 100
Plant response rating, Ducksalad [12, 26]: 70
Plant response rating, Ducksalad [12, 27]: 80
Plant response rating, Ducksalad [12, 28]: 90
Plant response rating, Ducksalad [12, 29]: 95
Surinam Grass plant response rating [13, 18]: 80
Surinam Grass plant response rating [13, 19]: 90
Plant response rating, Surinam Grass [13, 20]: 60
Surinam Grass plant response rating [13, 21]: 90
Wheat plant response rating [14, 22]: 60
Wheat plant response rating [14, 23]: 60
Wheat plant response rating [14, 24]: 50
Plant response rating, Wheat [14, 25]: 70
Foxtail, Giant plant response rating [15, 18]: 90
Plant response rating, Foxtail, Giant [15, 20]: 20
Foxtail, Giant plant response rating [15, 21]: 90
Ragweed plant response rating [16, 18]: 0
Ragweed plant response rating [16, 19]: 90
Ragweed plant response rating [16, 21]: 90
Bermudagrass plant response rating ([17]; 62 g ai/ha, Preemergence, scale 0 to 100 (0 no effect, 100 complete control)): 100
Bermudagrass plant response rating [17, 19]: 100
Plant response rating, Bermudagrass [17, 20]: 85
Bermudagrass plant response rating [17, 21]: 100
